# Laboratory results taken from patent publication US12582641B2, “Sulfur-containing compound based on glutarimide skeleton and application thereof” (SHANGHAITECH UNIVERSITY, priority 2019, dated 2026).
# Test system: MM.1S cells
# Test: Proliferation inhibition (IC50) in MM.1S cells, cell viability assay
# Details: Homo sapiens, MM1.S, 72 h, read-out: IC50 (nM), proliferation inhibitory activity of MM.1S cells (half inhibitory concentration)
row,Structure (SMILES),IC50 [nM]
1,"O=C1CCC(N2Cc3c(SCc4nc(CN5CC6CCCCC6C5)cs4)cccc3C2=O)C(=O)N1 (centres unmarked) [SIAIS313188, 3-(4-(((4-((hexahydro-1H-isoindol-2(3H)-yl)methyl)thiazol-2-yl)methyl)thio)-1-oxoisoindolin-2-yl)piperidine-2,6-dione]",1.43 ± 0.3
2,"CNCCCCCSc1cccc2c1CN(C1CCC(=O)NC1=O)C2=O (centres unmarked) [SIAIS1216141, 3-(4-((5-(methylamino)pentyl)thio)-1-oxoisoindolin-2-yl)piperidine-2,6-dione]",12.6 ± 3.47
3,"CSc1cccc2c1CN(C1CCC(=O)NC1=O)C2=O (centres unmarked) [SIAIS1210071, 3-(4-(methylthio)-1-oxoisoindolin-2-yl)piperidine-2,6-dione]",3.37 ± 0.48
4,"CNCCCCCCCCSc1cccc2c1CN(C1CCC(=O)NC1=O)C2=O (centres unmarked) [SIAIS1216151, 3-(4-((8-(methylamino)octyl)thio)-1-oxoisoindolin-2-yl)piperidine-2,6-dione]",0.33 ± 0.15
5,"CN(CCCCNC(=O)CSc1cccc2c1CN(C1CCC(=O)NC1=O)C2=O)C12CC3CC(CC(C3)C1)C2 (centres unmarked) [SIAIS287105, N-(4-(adamantan-1-yl(methyl)amino)butyl)-2-((2-(2,6-dioxopiperidin-3-yl)-1-oxoisoindolin-4-yl)thio)acetamide]",5.01
6,"O=C1CCC(N2Cc3c(SCCCCCCN4CCOCC4)cccc3C2=O)C(=O)N1 (centres unmarked) [SIAIS1220027, 3-(4-((6-morpholinohexyl)thio)-1-oxoisoindolin-2-yl)piperidine-2,6-dione]",0.7
7,"O=C1CCC(N2Cc3c(SCCCCCCCN4CCCC4)cccc3C2=O)C(=O)N1 (centres unmarked) [SIAIS1220161, 3-(1-oxo-4-((7-(pyrrolidin-1-yl)heptyl)thio)isoindolin-2-yl)piperidine-2,6-dione]",0.12
8,"O=C1CCC(N2C(=O)c3cccc(SCCCc4ccc(CNC5CCCCC5)cc4)c3C2=O)C(=O)N1 (centres unmarked) [SIAIS1227069, 4-((3-(4-((cyclohexylamino)methyl)phenyl)propyl)thio)-2-(2,6-dioxopiperidin-3-yl)isoindoline-1,3-dione]",1.12
9,"CN(C)CCCCCSc1cccc2c1CN(C1CCC(=O)NC1=O)C2=O (centres unmarked) [SIAIS1216089, 3-(4-((5-(dimethylamino)pentyl)thio)-1-oxoisoindolin-2-yl)piperidine-2,6-dione]",2.83 ± 0.76
10,"CCN(CC)CCCCCCCCCCSc1cccc2c1CN(C1CCC(=O)NC1=O)C2=O (centres unmarked) [SIAIS1220025, 3-(4-((10-(diethylamino)decyl)thio)-1-oxoisoindolin-2-yl)piperidine-2,6-dione]",0.49 ± 0.05
11,"O=C1CCC(N2Cc3c(SCCCCCCCCNC4C5CC6CC(C5)CC4C6)cccc3C2=O)C(=O)N1 (centres unmarked) [SIAIS1220089, 3-(4-((8-((adamantan-2-yl)amino)octyl)thio)-1-oxoisoindolin-2-yl)piperidine-2,6-dione]",0.07
12,"O=C1CCC(N2Cc3c(SCc4nc(CNCC5CCCCC5)cs4)cccc3C2=O)C(=O)N1 (centres unmarked) [SIAIS355004, 3-(4-(((4-(((cyclohexylmethyl)amino)methyl)thiazol-2-yl)methyl)thio)-1-oxoisoindolin-2-yl)piperidine-2,6-dione]",0.61 ± 0.42
13,"CCN(CC)CCNCCCCCSc1cccc2c1CN(C1CCC(=O)NC1=O)C2=O (centres unmarked) [SIAIS1220035, 3-(4-((5-((2-(diethylamino)ethyl)amino)pentyl)thio)-1-oxoisoindolin-2-yl)piperidine-2,6-dione]",4.13 ± 1.43
14,"CC[N+](CC)(CC)CCCCCCCCSc1cccc2c1CN(C1CCC(=O)NC1=O)C2=O (centres unmarked) [SIAIS1220093, 8-((2-(2,6-dioxopiperidin-3-yl)-1-oxoisoindolin-4-yl)thio)-N,N,N-triethyloctan-1-aminium chloride]",8.2
15,"O=C1CCC(N2C(=O)c3cccc(SCCCCCCNCC45CC6CC(CC(C6)C4)C5)c3C2=O)C(=O)N1 (centres unmarked) [SIAIS1222071, 4-((6-(((adamantan-1-yl)methyl)amino)hexyl)thio)-2-(2,6-dioxopiperidin-3-yl)isoindoline-1,3-dione]",2.12
16,"O=C1CCC(N2Cc3c(SCCCCCCCCS)cccc3C2=O)C(=O)N1 (centres unmarked) [SIAIS1220143, 3-(4-((8-mercaptooctyl)thio)-1-oxoisoindolin-2-yl)piperidine-2,6-dione]",2.73
17,"O=C1CCC(N2Cc3c(SCCCCCCCCO)cccc3C2=O)C(=O)N1 (centres unmarked) [SIAIS264006, 3-(4-((8-hydroxyoctyl)thio)-1-oxoisoindolin-2-yl)piperidine-2,6-dione]",0.83
18,"CCN(CC)CCc1ccc(CSc2cccc3c2CN(C2CCC(=O)NC2=O)C3=O)cc1 (centres unmarked) [SIAIS1227097, 3-(4-((4-(2-(diethylamino)ethyl)benzyl)thio)-1-oxoisoindolin-2-yl)piperidine-2,6-dione]",0.163
19,"CC1CC(C)CN(CCCCCCCSc2cccc3c2CN(C2CCC(=O)NC2=O)C3=O)C1 (centres unmarked) [SIAIS1221021, 3-(4-((7-(3,5-dimethylpiperidin-1-yl)heptyl)thio)-1-oxoisoindolin-2-yl)piperidine-2,6-dione]",0.047 ± 0.001

row,Structure (SMILES),IC50 [nM]
1,"O=C1CCC(N2Cc3c(SCc4cc(Br)c(CNC56CC7CC(CC(C7)C5)C6)cc4Br)cccc3C2=O)C(=O)N1 (centres unmarked) [SIAIS1227143, 3-(4-((4-(((adamantan-1-yl)amino)methyl)-2,5-dibromobenzyl)thio)-1-oxoisoindolin-2-yl)piperidine-2,6-dione]",0.11 ± 0.17
2,"O=C1CCC(N2Cc3c(SCc4ccc(CNCC5CCCCO5)o4)cccc3C2=O)C(=O)N1 (centres unmarked) [SIAIS313149, 3-(1-oxo-4-(((5-((((tetrahydro-2H-pyran-2-yl)methyl)amino)methyl)furan-2-yl)methyl)thio)isoindolin-2-yl)piperidine-2,6-dione]",1.3 ± 0.96
3,"O=C1CCC(N2Cc3c(SCCCCCCCN4C[C@H]5CCCC[C@H]5C4)cccc3C2=O)C(=O)N1 (stereo partly drawn) [SIAIS1222107, 3-(4-((7-((3aR,7aS)-hexahydro-1H-isoindol-2(3H)-yl)heptyl)thio)-1-oxoisoindolin-2-yl)piperidine-2,6-dione]",0.05
4,"O=C1CCC(N2Cc3c(SCc4csc(CN5CCCCC5)n4)cccc3C2=O)C(=O)N1 (centres unmarked) [SIAIS313164, 3-(1-oxo-4-(((2-(piperidin-1-ylmethyl)thiazol-4-yl)methyl)thio)isoindolin-2-yl)piperidine-2,6-dione]",2.78 ± 0.73
5,"CC1CC(C)CN(Cc2ccc(CSc3cccc4c3CN(C3CCC(=O)NC3=O)C4=O)cc2)C1 (centres unmarked) [SIAIS1227117, 3-(4-((4-((3,5-dimethylpiperidin-1-yl)methyl)benzyl)thio)-1-oxoisoindolin-2-yl)piperidine-2,6-dione]",0.2 ± 0.08
6,"O=C1CCC(N2Cc3c(SCc4cccc(CNC56CC7CC(CC(C7)C5)C6)c4)cccc3C2=O)C(=O)N1 (centres unmarked) [SIAIS1227135, 3-(4-((3-(((adamantan-1-yl)amino)methyl)benzyl)thio)-1-oxoisoindolin-2-yl)piperidine-2,6-dione]",0.03 ± 0.01
7,"O=C1CCC(N2Cc3c(SCCCCCCCN4CCCCCC4)cccc3C2=O)C(=O)N1 (centres unmarked) [SIAIS1220163, 3-(4-((7-(azepan-1-yl)heptyl)thio)-1-oxoisoindolin-2-yl)piperidine-2,6-dione]",0.03
8,"Cc1ccc(NC(=O)NCCCCSc2cccc3c2CN(C2CCC(=O)NC2=O)C3=O)cc1Cl (centres unmarked) [SIAIS269095, 1-(3-chloro-4-methylphenyl)-3-(4-((2-(2,6-dioxopiperidin-3-yl)-1-oxoisoindolin-4-yl)thio)butyl)urea]",0.334
9,"O=C1CCC(N2Cc3c(SCCCCCCCCN4CCOCC4)cccc3C2=O)C(=O)N1 (centres unmarked) [SIAIS1216143, 3-(4-((8-morpholinooctyl)thio)-1-oxoisoindolin-2-yl)piperidine-2,6-dione]",0.17 ± 0.04
10,"O=C1CCC(N2Cc3c(SCCCCCO)cccc3C2=O)C(=O)N1 (centres unmarked) [SIAIS1220069, 3-(4-((5-hydroxypentyl)thio)-1-oxoisoindolin-2-yl)piperidine-2,6-dione]",3.21
11,"O=C1CCC(N2Cc3c(SCCCCCCCCCSc4cccc5c4CN(C4CCC(=O)NC4=O)C5=O)cccc3C2=O)C(=O)N1 (centres unmarked) [SIAIS1220059B, 3,3′-((nonane-1,9-diylbis(sulfanediyl))bis(1-oxoisoindoline-4,2-diyl))bis(piperidine-2,6-dione)]",1.7
12,"O=C1CCC(N2C(=O)c3cccc(SCc4ccc(CNC56CC7CC(CC(C7)C5)C6)cc4)c3C2=O)C(=O)N1 (centres unmarked) [SIAIS1222013, 4-((4-(((adamantan-1-yl)amino)methyl)benzyl)thio)-2-(2,6-dioxopiperidin-3-yl)isoindoline-1,3-dione]",0.621
13,"O=C1CCC(N2Cc3c(SCCCc4ccc(CN5CCCCC5)cc4)cccc3C2=O)C(=O)N1 (centres unmarked) [SIAIS1227035, 3-(1-oxo-4-((3-(4-(piperidin-1-ylmethyl)phenyl)propyl)thio)isoindolin-2-yl)piperidine-2,6-dione]",0.14 ± 0.04
14,"CC(C)N(CCCCCCCSc1cccc2c1CN(C1CCC(=O)NC1=O)C2=O)C(C)C (centres unmarked) [SIAIS1220107, 3-(4-((7-(diisopropylamino)heptyl)thio)-1-oxoisoindolin-2-yl)piperidine-2,6-dione]",0.03
15,"O=C1CCC(N2Cc3c(SCCCCCCCN4CCCCCCC4)cccc3C2=O)C(=O)N1 (centres unmarked) [SIAIS1220193, 3-(4-((7-(azocan-1-yl)heptyl)thio)-1-oxoisoindolin-2-yl)piperidine-2,6-dione]",0.03 ± 0.01
16,"O=C1CCC(N2Cc3c(SCCC45CC6CC(CC(C6)C4)C5)cccc3C2=O)C(=O)N1 (centres unmarked) [SIAIS1222173, 3-(4-((2-(adamantan-1-yl)ethyl)thio)-1-oxoisoindolin-2-yl)piperidine-2,6-dione]",0.42
17,"O=C1CCC(N2C(=O)c3cccc(SCc4ccc(CCCNC5CCCCC5)cc4)c3C2=O)C(=O)N1 (centres unmarked) [SIAIS1227087, 4-((4-(3-(cyclohexylamino)propyl)benzyl)thio)-2-(2,6-dioxopiperidin-3-yl)isoindoline-1,3-dione]",0.283
18,"CN(CCCCCCCSc1cccc2c1CN(C1CCC(=O)NC1=O)C2=O)C1CCC(C)(C)CC1 (centres unmarked) [SIAIS1221125, 3-(4-((7-((4,4-dimethylcyclohexyl)(methyl)amino)heptyl)thio)-1-oxoisoindolin-2-yl)piperidine-2,6-dione]",0.035
19,"CN(CCCCCCCSc1cccc2c1CN(C1CCC(=O)NC1=O)C2=O)c1ccccc1 (centres unmarked) [SIAIS1220189, 3-(4-((7-(methyl(phenyl)amino)heptyl)thio)-1-oxoisoindolin-2-yl)piperidine-2,6-dione]",0.553
